Measured values published in patent US20100239501A1, “GENE SENSITIVE TO BONE/JOINT DISEASE AND USE THEREOF” (RIKEN, priority 2007, published 2010).

Legend:
[1] = system: OA patient-derived fibroblast-like synovial cells (HFLS-OA); assay: Inflammatory cytokine and MMP gene expression induction by LPA in human OA synovial cells; type: cell-based
Procedure: The inflammatory cytokine expression induction reaction of LPA, which is a ligand of EDG2, in OA patient-derived fibroblast-like synovial cells was analyzed. The method used is described below. OA patient-derived fibroblast-like synovial cells (HFLS-OA) were purchased from Cell application Co. The HFLS-OA was cultured using the attached Synoviocyte growth medium. The number of passages for the cells used was 4 or 5. The HFLS-OA was seeded to a 24-well plate at a ratio of 1×10^5 cells/well, and cultured using the attached Synoviocyte growth medium until they became confluent. Twelve hours before performing LPA stimulation, the medium was replaced with Ham's F-12 (Invitrogen) medium containing 0.1% fatty acid free bovine serum albumin (Sigma). In the time-related change analysis, 12 hours after the medium replacement, the cells were stimulated with 10 μM LPA; 0, 1, 2, 4, 8, 12 and 24 hours later, total RNA was extracted using ISOGEN (Nippon Gene), and the amounts expressed of the TNFA, IL1B, and IL6 genes, which are inflammatory cytokine genes, and of the MMP1, MMP3, and MMP13 genes, which are Matrix metalloproteinase (MMP) genes, were quantified by a method in accordance with Example 10 (n=4). In the dose dependency test, 12 hours after the medium replacement, the cells were stimulated with 0, 0.1, 0.3, 1, 3 and 10 μM LPA; 2 hours later, total RNA was extracted using ISOGEN (Nippon Gene), and the amounts expressed of the TNFA, IL1B, and IL6 genes, which are inflammatory cytokine genes, were quantified in the same manner as the above for the time-related change test (n=3). As a result of the time-related change test of inflammatory cytokine genes with LPA stimulation, the amounts of TNFA, IL1B and IL6 expressed rose transiently, with peaks reached 2, 4 and 1 hour later, respectively (FIGS. 8a, b and c). The amounts expressed of the MMP1, MMP3, and MMP13 genes, which are MMP genes, rose transiently, with peaks reached 8, 8 and 4 hours later, respectively (FIGS. 8d, e and f). It is known that in synovial cells, MMP genes have the expression thereof increased by inflammatory cytokines. In this experiment, the rise in the expression of the inflammatory cytokine genes preceded the rise in the expression of the MMP genes; therefore, the rise in the expression of MMP genes with LPA stimulation may be a secondary reaction via an inflammatory cytokine. As a result of the dose dependency test, it was shown that LPA raises the expression of inflammatory cytokine genes dose-dependently (FIGS. 8g, h and i). The amounts expressed of the TNFA and IL1B genes nearly reached a plateau at 1 μM, whereas the expression of the IL6 gene rose dose-dependently up to 10 μM. […] From this finding, it is thought that the inflammatory cytokine gene group induction reaction of LPA is very highly likely to be a reaction mediated mainly by the EDG2 gene.

[2] = system: Normal human knee articular cartilage cells (NHAC-kn); assay: Inflammatory cytokine gene expression induction by LPA in human articular cartilage cells; type: cell-based; details: 10 μM LPA, n=4
Procedure: EDG2 is a GPCR having lysophosphatidic acid (LPA) as a ligand thereof. For LPA, four receptors, including EDG2, have been reported (EDG2, EDG4, EDG7 and GPR23). To analyze the tissue distributions of these four LPA receptors, an expression quantitation analysis by quantitative real-time PCR in various human tissues was performed. On 500 ng of total RNA of each of various human tissues (Human Total RNA Master Panel, Clontech), reverse transcription was performed using Multiscribe reverse transcriptase (Applied biosystems) and a random hexamer, whereby a cDNA was obtained. Quantitation of the LPA receptor genes was performed using QuantiTect STBR Green PCR (Qiagen) on the ABI PRISM 7700 sequence detection system (Applied biosystems) as directed in the documentation attached. The number of copies of each gene was calculated using a working curve. […]
The inflammatory cytokine expression induction reaction of LPA, which is a ligand of EDG2, in human articular cartilage cells was analyzed. […] Twelve hours after the medium replacement, the cells were stimulated with 10 μM LPA; 0, 2, 4, 8, 12 and 24 hours later, total RNA was extracted using ISOGEN (Nippon Gene), and the amounts expressed of TNFA and IL1B, which are inflammatory cytokine genes, were quantified by a method in accordance with Example 10. […]

## CCCCCCCC/C=C\CCCCCCCC(=O)OC[C@@H](O)COP(=O)(O)O [LPA, 1-Oleoyl-sn-Glycero-3-Phosphate]
[1]; 0, 0.1, 0.3, 1, 3 and 10 μM LPA, 2 hours, n=3
  rise of expression of inflammatory cytokine genes (TNFA, IL1B, IL6): dose-dependently
[1]; 10 μM LPA, transient rise, n=4
  time of peak of IL1B expression: 4 h
  time of peak of IL6 expression: 1 h
  time of peak of MMP1 gene expression: 8 h
  time of peak of MMP3 gene expression: 8 h
  time of peak of MMP13 gene expression: 4 h
  time of peak of TNFA expression: 2 h
[1]; dose dependency test, 2 hours
  LPA concentration at which IL1B gene expression nearly reached a plateau: 1 µM
  LPA concentration at which TNFA gene expression nearly reached a plateau: 1 µM
  LPA concentration up to which IL6 gene expression rose dose-dependently: up to 10 μM
[2]; 0-24 hours
  IL1B gene expression: no expression raising reaction was observed
[2]; transiently, 2 hours after addition
  rise in amount expressed of the TNFA gene: about 2 folds
